Test results published in patent US6765010B2, “Compositions and methods for enhancing analgesic potency of tramadol and attenuating its adverse side effects” (Pain Therapeutics, Inc., priority 1999, dated 2004).
Read-outs that look alike come from different tables or passages of the source.

Legend:
[1] = tested on: human subjects/patients with pain following dental surgery; format: in vivo
[2] = tested on: human subjects/patients with pain following dental surgery; assay: Dental surgery pain study: visual analog scale pain intensity difference (VAS-PID, VAS-SPID); format: in vivo; settings: LOCF; for Hourly Visual Analog-PID (VAS-PID) score, Mean / Hourly Visual Analog-PID (VAS-PID) score, Median: ITT subjects
[3] = tested on: human subjects/patients with pain following dental surgery; assay: Dental surgery pain study: time to onset of meaningful pain relief; format: in vivo; settings: ITT
Text: (§1) For this randomized, double-blind, active-controlled and placebo-controlled, parallel-group study, human subjects were randomized into one of the following five treatment groups:
(§2) A positive control (T, Group 4) was used to determine the sensitivity of the clinical end points. A negative control (placebo, Group 5) was used to establish the frequency and magnitude of changes in clinical end points that may occur in the absence of an active treatment. A single oral dose of study medication was administered when the subject experienced moderate to severe pain following the surgical extraction of three or four third molars. At least one of the molars was required to be mandibular bony impacted.
A pain assessment was also performed post-treatment. Following dosing, pain intensity and pain relief was recorded at the following times: 30 minutes, 60 minutes and hourly thereafter up to Hour 8 after dosing. All efficacy assessments were recorded by the subject in a diary in response to questioning by the trained observer. […] Pain intensity was measured in response to the question, “How much pain do you have now?” with (1) subject response choices of none, mild, moderate and severe on a categorical scale, and (2) a mark on a 100-mm VAS. […]
Time to remedication (or rescue medication) was analyzed using the Kaplan-Meier estimate to compute the survival distribution function. […]

[4] = tested on: human subjects/patients with pain following dental surgery; assay: Dental surgery pain study: remedication (rescue medication); format: in vivo; settings: ITT
Text: as §1, §2
The subject was then given a rescue medication and discontinued from study. The subject was encouraged to wait at least until Hour 2 after administration of the study medication before using rescue medication. Subjects remedicating earlier than Hour 1 were not included in the analysis for efficacy. Subjects not remedicating during the eight hours of evaluation received a diary card and asked to record the time of remedication after they left the clinic.
Time to remedication (or rescue medication) was analyzed using the Kaplan-Meier estimate to compute the survival distribution function. The distribution was compared among groups using the Log Rank Test. A subject was considered censored at eight hours if remedication had not occurred. Pairwise comparisons were made using the LIFETEST methodology. Hochberg's procedure was used to control the family-wise type 1 error. Time to Onset of Meaningful Relief (determined by the stopwatch) was similarly analyzed. […] In all the above analyses baseline pain intensity could be used as a stratification factor. […] The sample size was estimated from historical data and from practical considerations rather than from calculation of expected measured differences.

[5] = in vivo, cited from earlier work
[6] = tested on: α2-adrenoreceptors; settings: cited from earlier work

SMILES: COc1cccc([C@@]2(O)CCCC[C@@H]2CN(C)C)c1.Cl (racemic) [tramadol, (1RS,2RS)-2[(dimethylamino)-methyl]-1-(3-methoxyphenyl)-cyclohexanol HCL]
- Hourly Pain Relief Score (PAR), Mean ([1]; Hour 0.5, ITT): 0.28
- Hourly Pain Relief Score (PAR), Median ([1]; Hour 0.5, ITT): 0
- Hourly Pain Relief Score (PAR), Mean ([1]; Hour 1, ITT): 0.40
- Hourly Pain Relief Score (PAR), Median ([1]; Hour 1, ITT): 0
- Hourly Pain Relief Score (PAR), Mean ([1]; Hour 2, ITT): 0.76
- Hourly Pain Relief Score (PAR), Median ([1]; Hour 2, ITT): 0
- Hourly Pain Relief Score (PAR), Mean ([1]; Hour 3, ITT): 0.80
- Hourly Pain Relief Score (PAR), Median ([1]; Hour 3, ITT): 0
- Hourly Pain Relief Score (PAR), Mean ([1]; Hour 4, ITT): 0.94
- Hourly Pain Relief Score (PAR), Median ([1]; Hour 4, ITT): 0
- Hourly Pain Relief Score (PAR), Mean ([1]; Hour 5, ITT): 0.84
- Hourly Pain Relief Score (PAR), Median ([1]; Hour 5, ITT): 0
- Hourly Pain Relief Score (PAR), Mean ([1]; Hour 6, ITT): 0.86
- Hourly Pain Relief Score (PAR), Median ([1]; Hour 6, ITT): 0
- Hourly Pain Relief Score (PAR), Mean ([1]; Hour 7, ITT): 0.82
- Hourly Pain Relief Score (PAR), Median ([1]; Hour 7, ITT): 0
- Hourly Pain Relief Score (PAR), Mean ([1]; Hour 8, ITT): 0.86
- Hourly Pain Relief Score (PAR), Median ([1]; Hour 8, ITT): 0
- TOTPAR up to 4 Hours, Mean ([1]; ITT, single oral dose, LOCF): 3.18
- TOTPAR up to 4 Hours, Median ([1]; ITT, single oral dose, LOCF): 2
- TOTPAR up to 6 Hours, Mean ([1]; ITT, single oral dose, LOCF): 4.88
- TOTPAR up to 6 Hours, Median ([1]; ITT, single oral dose, LOCF): 2
- TOTPAR up to 8 Hours, Mean ([1]; ITT, single oral dose, LOCF): 6.56
- TOTPAR up to 8 Hours, Median ([1]; ITT, single oral dose, LOCF): 2
- Hourly Visual Analog-PID (VAS-PID) score, Mean ([2]; Hour 0.5): −6.16
- Hourly Visual Analog-PID (VAS-PID) score, Median ([2]; Hour 0.5): −4
- Hourly Visual Analog-PID (VAS-PID) score, Mean ([2]; Hour 1): −7.54
- Hourly Visual Analog-PID (VAS-PID) score, Median ([2]; Hour 1): −7
- Hourly Visual Analog-PID (VAS-PID) score, Mean ([2]; Hour 2): −2.58
- Hourly Visual Analog-PID (VAS-PID) score, Median ([2]; Hour 2): −4
- Hourly Visual Analog-PID (VAS-PID) score, Mean ([2]; Hour 3): −1.76
- Hourly Visual Analog-PID (VAS-PID) score, Median ([2]; Hour 3): −2
- Hourly Visual Analog-PID (VAS-PID) score, Mean ([2]; Hour 4): 1.50
- Hourly Visual Analog-PID (VAS-PID) score, Median ([2]; Hour 4): −2
- Hourly Visual Analog-PID (VAS-PID) score, Mean ([2]; Hour 5): 1.16
- Hourly Visual Analog-PID (VAS-PID) score, Median ([2]; Hour 5): −2
- Hourly Visual Analog-PID (VAS-PID) score, Mean ([2]; Hour 6): 1.36
- Hourly Visual Analog-PID (VAS-PID) score, Median ([2]; Hour 6): −2
- Hourly Visual Analog-PID (VAS-PID) score, Mean ([2]; Hour 7): −1.10
- Hourly Visual Analog-PID (VAS-PID) score, Median ([2]; Hour 7): −2
- Hourly Visual Analog-PID (VAS-PID) score, Mean ([2]; Hour 8): −0.02
- Hourly Visual Analog-PID (VAS-PID) score, Median ([2]; Hour 8): −2
- VAS-SPID up to 4 Hours, Mean ([2]; ITT, single oral dose): −16.54
- VAS-SPID up to 4 Hours, Median ([2]; ITT, single oral dose): −19
- VAS-SPID up to 6 Hours, Mean ([2]; ITT, single oral dose): −14.02
- VAS-SPID up to 6 Hours, Median ([2]; ITT, single oral dose): −18
- VAS-SPID up to 8 Hours, Mean ([2]; ITT, single oral dose): −15.14
- VAS-SPID up to 8 Hours, Median ([2]; ITT, single oral dose): −27
- Time to Onset of Meaningful Pain Relief, Median ([3]; Kaplan-Meier): 3.85 h
- Number of Subjects with Meaningful Pain Relief ([3]; within 8 hours): 17 subjects
- Time to Remedication up to 8 Hours, Median ([4]; Kaplan-Meier): 2.48 h
- Time to Remedication up to 24 Hours, Median ([4]; Kaplan-Meier): 2.48 h
- Percent of Subject who take Remedication up to 8 hours, No ([4]; first section of Table 9): 15 (30.0%) n (%)
- Percent of Subject who take Remedication up to 8 hours, Yes ([4]; first section of Table 9): 35 (70.0%) n (%)
- Percent of Subject who take Remedication up to 8 hours, No ([4]; second section of Table 9): 8 (16.0%) n (%)
- Percent of Subject who take Remedication up to 8 hours, Yes ([4]; second section of Table 9): 42 (84.0%) n (%)
- Number of Subjects taken Rescue Medication ([4]; up to 8 Hours): 35 subjects
- Number of Subjects taken Rescue Medication ([4]; up to 24 Hours): 42 subjects
- potency relative to morphine ([5]; iv): approximately one-tenth
- oral analgesic potency versus morphine ([5]; po): equipotent to oral morphine 30 mg
- affinity for α2-adrenoreceptors [6]: does not have affinity
